Results: patent publication US8987250B2 (Gilead Sciences, Inc., priority 2012, dated 2015)

Tested on: HIV-IIIb
Assay: Test A: Antiviral Assay in MT4 Cells
Assay type: cell-based
Conditions: Human immunodeficiency virus 1, IIIB, MT4, 120 h, Table 1; MT-4 cells infected with HIV-IIIb, 5 days of incubation, CellTiter-Glo; read-out: EC50
Experimental: The antiviral properties of a compound of the invention may be determined using Test A described below.
Test A: Antiviral Assay in MT4 Cells
For the antiviral assay utilizing MT-4 cells, 0.4 μL of […] test concentration of 3-fold serially diluted compound in DMSO was added to 40 μL of cell growth medium (RPMI 1640, 10% FBS, 1% penicilline/Streptomycine, 1% L-Glutamine, 1% HEPES) in each well of 384-well assay plates (10 concentrations) in quadruplicate.
One mL aliquots of 2×10e6 MT-4 cells were pre-infected for 1 and 3 hours respectively, @ 37° C. with 25 uL (MT4) or of either cell growth medium (mock-infected) or a fresh 1:250 dilution of an HIV-IIIb concentrated ABI stock (0.004m.o.i. for MT4 cells). Infected and uninfected cells were diluted in cell growth medium and 35 uL of 2000 (for MT4) cells was added to each well of the assay plates.
Assay plates were then incubated in a 37° C. incubator. After 5 days of incubation, […] of 2× concentrated CellTiter-Glo™ Reagent (catalog #G7573, Promega Biosciences, Inc., Madison, Wis.) was added to each well of the assay plate. Cell lysis was carried out by incubating at room temperature for 2-3 min and then chemiluminescence was read using the Envision reader (PerkinElmer). […]

Cc1cc2nc(-n3cccc(-c4ccc5c(cnn5C)c4)c3=O)sc2c(-c2ccc(Cl)cc2)c1[C@H](OC(C)(C)C)C(=O)O [Compound 117, (S)-2-tert-butoxy-2-(7-(4-chlorophenyl)-5-methyl-2-(3-(1-methyl-1H-indazol-5-yl)-2-oxopyridin-1(2H)-yl)benzo[d]thiazol-6-yl)acetic acid]
EC50: 14 nM

Cc1cc2nc(-n3cc(-c4ccc5c(cnn5C)c4)ccc3=O)sc2c(-c2ccc(Cl)cc2)c1[C@H](OC(C)(C)C)C(=O)O [Compound 118, (S)-2-tert-butoxy-2-(7-(4-chlorophenyl)-5-methyl-2-(5-(1-methyl-1H-indazol-5-yl)-2-oxopyridin-1(2H)-yl)benzo[d]thiazol-6-yl)acetic acid]
EC50: 101 nM

Cc1cc2nc(-c3cccc(-c4ccc5c(cnn5C)c4)c3)sc2c(-c2ccc3c(c2)OC(C)O3)c1[C@H](OC(C)(C)C)C(=O)O (stereo partly drawn) [Compound 119, (2S)-2-tert-butoxy-2-(5-methyl-2-(3-(1-methyl-1H-indazol-5-yl)phenyl)-7-(2-methylbenzo[d][1,3]dioxol-5-yl)benzo[d]thiazol-6-yl)acetic acid]
EC50: 237 nM

Cc1cc2nc(-c3cccc(-c4cnn(C)c4C)c3)sc2c(-c2ccc(Cl)cc2)c1[C@H](OC(C)(C)C)C(=O)O [Compound 120, (S)-2-tert-butoxy-2-(7-(4-chlorophenyl)-2-(3-(1,5-dimethyl-1H-pyrazol-4-yl)phenyl)-5-methylbenzo[d]thiazol-6-yl)acetic acid]
EC50: 23 nM

Cc1cc2nc(-c3cnc4c(c3)c(C)cn4C)sc2c(-c2ccc(Cl)cc2)c1[C@H](OC(C)(C)C)C(=O)O [Compound 121, (S)-2-tert-butoxy-2-(7-(4-chlorophenyl)-2-(1,3-dimethyl-1H-pyrrolo[2,3-b]pyridin-5-yl)-5-methylbenzo[d]thiazol-6-yl)acetic acid]
EC50: 27 nM

Cc1cc2nc(-c3ccnc(-c4cccc(-c5nnn[nH]5)c4)c3)sc2c(-c2ccc(Cl)cc2)c1[C@H](OC(C)(C)C)C(=O)O [Compound 122, (S)-2-(2-(2-(3-(1H-tetrazol-5-yl)phenyl)pyridin-4-yl)-7-(4-chlorophenyl)-5-methylbenzo[d]thiazol-6-yl)-2-tert-butoxyacetic acid]
EC50: 5520 nM

Cc1cc2nc(N3CCCN(c4ccc5c(cnn5C)c4)C3=O)sc2c(-c2ccc(Cl)cc2)c1[C@H](OC(C)(C)C)C(=O)O [Compound 123, (S)-2-tert-butoxy-2-(7-(4-chlorophenyl)-5-methyl-2-(3-(1-methyl-1H-indazol-5-yl)-2-oxotetrahydropyrimidin-1(2H)-yl)benzo[d]thiazol-6-yl)acetic acid]
EC50: 18 nM

Cc1cc2nc(N3CCN(c4ccc5c(cnn5C)c4)C3=O)sc2c(-c2ccc(Cl)cc2)c1[C@H](OC(C)(C)C)C(=O)O [Compound 124, (S)-2-tert-butoxy-2-(7-(4-chlorophenyl)-5-methyl-2-(3-(1-methyl-1H-indazol-5-yl)-2-oxoimidazolidin-1-yl)benzo[d]thiazol-6-yl)acetic acid]
EC50: 21 nM

Cc1cc2nc(N3CC(c4ccc5c(cnn5C)c4)CC3=O)sc2c(-c2ccc(Cl)cc2)c1[C@H](OC(C)(C)C)C(=O)O (stereo partly drawn) [Compound 125, (2S)-2-tert-butoxy-2-(7-(4-chlorophenyl)-5-methyl-2-(4-(1-methyl-1H-indazol-5-yl)-2-oxopyrrolidin-1-yl)benzo[d]thiazol-6-yl)acetic acid]
EC50: 205 nM

Cc1cc2nc(N3CCC(c4ccccc4)C3)sc2c(-c2ccc(Cl)cc2)c1[C@H](OC(C)(C)C)C(=O)O (stereo partly shown) [Compound 126]
EC50: 722 nM

Cc1cc2nc(-c3ccnc(-c4cnc5cnn(C)c5c4)c3)sc2c(-c2ccc(Cl)cc2)c1[C@H](OC(C)(C)C)C(=O)O [Compound 129]
EC50: 48 nM

Cc1cc2nc(-c3cc(-c4ccc5c(cnn5C)c4)ncn3)sc2c(-c2ccc(Cl)cc2)c1[C@H](OC(C)(C)C)C(=O)O [Compound 130]
EC50: 100 nM

Cc1cc2nc(-c3cncc(-c4ccc5c(cnn5C)c4)n3)sc2c(-c2ccc(Cl)cc2)c1[C@H](OC(C)(C)C)C(=O)O [Compound 131]
EC50: 8 nM

Cc1cc2nc(-c3cnc4cn(C)nc4c3)sc2c(-c2ccc(Cl)cc2)c1[C@H](OC(C)(C)C)C(=O)O [Compound 132]
EC50: 12 nM

Cc1cc2nc(-c3ccc4c(c3)c(N)nn4C)sc2c(-c2ccc(Cl)cc2)c1[C@H](OC(C)(C)C)C(=O)O [Compound 133]
EC50: 18 nM

Cc1cc2nc(-c3ccnc(-c4cnc(O)nc4)c3)sc2c(-c2ccc(Cl)cc2)c1[C@H](OC(C)(C)C)C(=O)O [Compound 134]
EC50: 3230 nM

Cc1cc2nc(-c3ccnc(-c4cnc(N5CCOCC5)nc4)c3)sc2c(-c2ccc(Cl)cc2)c1[C@H](OC(C)(C)C)C(=O)O [Compound 135]
EC50: 17 nM

Cc1cc2nc(-c3ccnc(-c4cnc(N5CCN(C)CC5)nc4)c3)sc2c(-c2ccc(Cl)cc2)c1[C@H](OC(C)(C)C)C(=O)O [Compound 136]
EC50: 12 nM

Cc1cc2nc(-c3cccc(-c4cnc5cnn(C)c5c4)c3)sc2c(-c2ccc(Cl)cc2)c1[C@H](OC(C)(C)C)C(=O)O [Compound 137]
EC50: 21 nM

Cc1cc2nc(-c3ccnc(-c4cnc(C5CCC5)nc4)c3)sc2c(-c2ccc(Cl)cc2)c1[C@H](OC(C)(C)C)C(=O)O [Compound 138]
EC50: 65 nM

Cc1cc2nc(-c3ccnc(-c4ccc5c(c4)c(C4CC4)nn5C)c3)sc2c(-c2ccc(Cl)cc2)c1[C@H](OC(C)(C)C)C(=O)O [Compound 139]
EC50: 61 nM

Cc1cc2nc(-c3ccnc(-c4ccc(N5CCN(C)CC5)nc4)c3)sc2c(-c2ccc(Cl)cc2)c1[C@H](OC(C)(C)C)C(=O)O [Compound 140]
EC50: 5 nM

Cc1cc2nc(-c3cccc(-c4cnc(N(C)C)nc4)c3)sc2c(-c2ccc(Cl)cc2)c1[C@H](OC(C)(C)C)C(=O)O [Compound 142]
EC50: 48 nM

COc1ncc(-c2cccc(-c3nc4cc(C)c([C@H](OC(C)(C)C)C(=O)O)c(-c5ccc(Cl)cc5)c4s3)c2)cn1 [Compound 143]
EC50: 24 nM

Cc1cc2nc(-c3cccc(-c4cnc(O)nc4)c3)sc2c(-c2ccc(Cl)cc2)c1[C@H](OC(C)(C)C)C(=O)O [Compound 144]
EC50: 2610 nM

Cc1cc2nc(-c3cccc(-c4cn(C)nc4C)c3)sc2c(-c2ccc(Cl)cc2)c1[C@H](OC(C)(C)C)C(=O)O [Compound 145]
EC50: 34 nM

Cc1cc2nc(-c3cccc(-c4cnn(C5CCCC5)c4)c3)sc2c(-c2ccc(Cl)cc2)c1[C@H](OC(C)(C)C)C(=O)O [Compound 146]
EC50: 92 nM

Cc1cc2nc(-c3cccc(-c4cnn(CC(C)C)c4)c3)sc2c(-c2ccc(Cl)cc2)c1[C@H](OC(C)(C)C)C(=O)O [Compound 147]
EC50: 59 nM

Cc1cc2nc(-c3ccnc(-c4cncc(C(=O)O)c4)c3)sc2c(-c2ccc(Cl)cc2)c1[C@H](OC(C)(C)C)C(=O)O [Compound 148]
EC50: 2700 nM

Cc1cc2nc(-c3ccnc(-c4cncc(C(N)=O)c4)c3)sc2c(-c2ccc(Cl)cc2)c1[C@H](OC(C)(C)C)C(=O)O [Compound 149]
EC50: 153 nM

Cc1cc2nc(-c3cccc(-c4cnn(Cc5ccccc5)c4)c3)sc2c(-c2ccc(Cl)cc2)c1[C@H](OC(C)(C)C)C(=O)O [Compound 150]
EC50: 91 nM

Cc1cc2nc(-c3cccc(-c4cnn(C(C)C)c4)c3)sc2c(-c2ccc(Cl)cc2)c1[C@H](OC(C)(C)C)C(=O)O [Compound 151]
EC50: 32 nM

Cc1cc2nc(-c3cccc(-c4ccc(N5CCN(C)CC5)nc4)c3)sc2c(-c2ccc(Cl)cc2)c1[C@H](OC(C)(C)C)C(=O)O [Compound 153]
EC50: 15 nM

Cc1cc2nc(-c3ccnc(-c4cnn(C)c4)c3)sc2c(-c2ccc(Cl)cc2)c1[C@H](OC(C)(C)C)C(=O)O [Compound 154]
EC50: 16 nM

Cc1cc2nc(-c3ccnc(-c4cccc(C(N)=O)c4)c3)sc2c(-c2ccc(Cl)cc2)c1[C@H](OC(C)(C)C)C(=O)O [Compound 155]
EC50: 66 nM

Cc1cc2nc(-c3ccnc(-c4cccc(C#N)c4)c3)sc2c(-c2ccc(Cl)cc2)c1[C@H](OC(C)(C)C)C(=O)O [Compound 156]
EC50: 26 nM

Cc1cc2nc(-c3cncc(-c4ccc5c(c4)ncn5C)c3)sc2c(-c2ccc(Cl)cc2)c1[C@H](OC(C)(C)C)C(=O)O [Compound 157]
EC50: 29 nM

Cc1cc2nc(-c3cccc(-c4ccnn4C)c3)sc2c(-c2ccc(Cl)cc2)c1[C@H](OC(C)(C)C)C(=O)O [Compound 159]
EC50: 46 nM

COc1ncccc1-c1cccc(-c2nc3cc(C)c([C@H](OC(C)(C)C)C(=O)O)c(-c4ccc(Cl)cc4)c3s2)c1 [Compound 160]
EC50: 136 nM

COc1ccncc1-c1cccc(-c2nc3cc(C)c([C@H](OC(C)(C)C)C(=O)O)c(-c4ccc(Cl)cc4)c3s2)c1 [Compound 161]
EC50: 116 nM

Cc1cc2nc(-c3cccc(-c4ccccc4)c3F)sc2c(-c2ccc(Cl)cc2)c1[C@H](OC(C)(C)C)C(=O)O [Compound 162]
EC50: 350 nM

Cc1cc2nc(-c3cccc(-c4ccc5c(cnn5C)c4)c3)sc2c(-c2ccc3c(c2)C(=O)CCO3)c1[C@H](OC(C)(C)C)C(=O)O [Compound 169]
EC50: 33 nM

Cc1cc2nc(-c3cccc(-c4ccc5c(cnn5C)c4)c3)sc2c(-c2ccc3c(c2)CCCO3)c1[C@H](OC(C)(C)C)C(=O)O [Compound 170]
EC50: 35 nM
